# Target: T1, Nicotinamide N-methyltransferase (Homo sapiens, UniProt P40261)
# T1 sequence (P40261 whole entry): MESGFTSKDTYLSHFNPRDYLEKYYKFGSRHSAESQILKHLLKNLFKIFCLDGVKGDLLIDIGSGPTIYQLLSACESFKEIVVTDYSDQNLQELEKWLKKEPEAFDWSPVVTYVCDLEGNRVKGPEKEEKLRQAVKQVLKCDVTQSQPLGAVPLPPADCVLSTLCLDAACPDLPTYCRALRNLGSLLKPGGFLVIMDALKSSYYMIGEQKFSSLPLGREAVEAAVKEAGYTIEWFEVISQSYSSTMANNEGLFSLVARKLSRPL
# Experiment: NNMT Enzymatic Activity Assay
# Conditions: pH 8.6; 37 °C
# Protocol: Enzyme activity assays were performed as previously described with NNMT (16.25 ug/mL, 550 nM) in 50 mM Tris buffer (pH 8.6) containing 1 mM DTT (all final concentrations). The enzyme was incubated with the substrate pyridine compound for 5 min at 37 °C using a heat block before the reaction was initiated by addition of AdoMet (for substrates that were not soluble in water, stocksolutions were prepared in DMSO and diluted to a final DMSO concentration of <5% in the assay mixture). […] For these screens, the final reagent concentrations were 100 uM AdoMet and 2.0 mM substrate and a series of time points were initially investigated (5, 15, 30, and 60 min). At each time point, 15 uL aliquots of the reaction mixture were taken and added to 70 uL of acetonitrile, which served to quench the reaction by causing precipitation of the enzyme.
row,Ki [mM],Structure (SMILES)
1,9.7,NC(=O)c1cnc2ccccc2c1 [quinoline 3-carboxamide]
2,6.6,NC(=S)c1cccnc1 [thionicotinamide]

row,Structure (SMILES),Ki [mM]
1,"c1ccc2c(c1)CCNC2 [1,2,3,4-tetrahydroisoquinoline]",4.7

# From BindingDB's records for doi:10.1021/acs.biochem.6b00733 (Utrecht University, 2016)
